# Test results reported in patent US12544395B2, “Combination compositions comprising a beta-lactamase inhibitor and uses thereof” (priority 2018, dated 2026).
# Values joined by “and” are separate entries in the source; they are usually repeats but may differ in a detail not shown here. Identical values can stand only once.
# Key:
# K. oxytoca 176877 = test: Broth microdilution MIC (strain enzymes: SHV-105); assay type: cell-based; conditions: Klebsiella oxytoca, 176877; alone; read-out: MIC of cefixime (CFM)
# E. coli SI-AIRT-4 = test: Broth microdilution MIC (strain enzymes: TEM-1); assay type: cell-based; conditions: Escherichia coli, SIAIRT4; alone; read-out: MIC of cefixime (CFM)
# K. pneumoniae ESBL 7 #1 = test: Broth microdilution MIC (strain enzymes: SHV-12, TEM-1); assay type: cell-based; conditions: Klebsiella pneumoniae; alone; read-out: MIC of cefixime (CFM)
# K. pneumoniae 3151 = test: as above; assay type: cell-based; conditions: Klebsiella pneumoniae, 3151; alone; read-out: MIC of cefixime (CFM)
# E. coli ESBL 5 = test: Broth microdilution MIC (strain enzymes: CTX-M15, TEM-1); assay type: cell-based; conditions: Escherichia coli, ESBL5; alone; read-out: MIC of cefixime (CFM)
# K. pneumoniae KP 3 = test: Broth microdilution MIC (strain enzymes: SHV-1, TEM-1); assay type: cell-based; conditions: Klebsiella pneumoniae, KP3; alone; read-out: MIC of cefixime (CFM)
# E. coli 1924 = test: Broth microdilution MIC (strain enzymes: TEM-12); assay type: cell-based; conditions: Escherichia coli, 1924; alone; read-out: MIC of cefixime (CFM)
# E. coli 2150 = test: Broth microdilution MIC (strain enzymes: SHV-3, TEM-1); assay type: cell-based; conditions: Escherichia coli, 2150; alone; read-out: MIC of cefixime (CFM)
# E. coli ESBL 4 = test: Broth microdilution MIC (strain enzymes: CTX-M15, TEM-1); assay type: cell-based; conditions: Escherichia coli, ESBL4; alone; read-out: MIC of cefixime (CFM)
# K. pneumoniae KP 4 = test: Broth microdilution MIC (strain enzymes: SHV-2a, SHV-5, TEM-1); assay type: cell-based; conditions: Klebsiella pneumoniae, KP4; alone; read-out: MIC of cefixime (CFM)
# K. pneumoniae ESBL 8 #1 = test: Broth microdilution MIC (strain enzymes: TEM-1, SHV-12); assay type: cell-based; conditions: Klebsiella pneumoniae; alone; read-out: MIC of cefixime (CFM)
# K. pneumoniae 115468 = test: Broth microdilution MIC (strain enzymes: TEM-1); assay type: cell-based; conditions: Klebsiella pneumoniae, 115468; alone; read-out: MIC of cefixime (CFM)
# E. coli 3327 = test: Broth microdilution MIC (strain enzymes: TEM-1, SHV-12); assay type: cell-based; conditions: Escherichia coli, 3327; alone; read-out: MIC of cefixime (CFM)
# K. pneumoniae 153239 = test: Broth microdilution MIC (strain enzymes: SHV-11, TEM-1); assay type: cell-based; conditions: Klebsiella pneumoniae, 153239; alone; read-out: MIC of cefixime (CFM)
# K. pneumoniae 11/23 LF#2 = test: microbe, parasite or virus in culture; assay type: cell-based; conditions: Klebsiella pneumoniae, read-out: MIC of cefixime (CFM)
# K. pneumoniae ESBL 8 #2 = test: Broth microdilution MIC (strain enzymes: SHV-12, TEM-1); assay type: cell-based; conditions: Klebsiella pneumoniae; alone; read-out: MIC of cefixime (CFM)
# K. pneumoniae BAA 1705 = test: Broth microdilution MIC (strain KPC-producing); assay type: cell-based; conditions: Klebsiella pneumoniae, BAA1705; alone; read-out: MIC of cefixime (CFM)
# [1] = system: panel of ESBL-producing Enterobacteriaceae (40 strains); test: Broth microdilution MIC50/MIC90 summary over the panel; assay type: cell-based
# K. pneumoniae 319478 = test: Broth microdilution MIC (strain enzymes: SHV-12, CTX-M3 and TEM-1); assay type: cell-based; conditions: Klebsiella pneumoniae, 319478; alone; read-out: MIC of cefixime (CFM)
# E. coli BAS 1 = test: Broth microdilution MIC (strain enzymes: none detected); assay type: cell-based; conditions: Escherichia coli, BAS1; alone; read-out: MIC of cefixime (CFM)
# K. pneumoniae 304487 = test: Broth microdilution MIC (strain enzymes: SHV-12,TEM-1); assay type: cell-based; conditions: Klebsiella pneumoniae, 304487; alone; read-out: MIC of cefixime (CFM)
# K. pneumoniae KP 8 = test: Broth microdilution MIC (strain enzymes: TEM-10, TEM-1, CTX-M15); assay type: cell-based; conditions: Klebsiella pneumoniae, KP8; alone; read-out: MIC of cefixime (CFM)
# E. coli SI-PBLII = test: Broth microdilution MIC (strain enzymes: CTX-M2, TEM-1); assay type: cell-based; conditions: Escherichia coli; alone; read-out: MIC of cefixime (CFM)
# E. coli 3174 = test: Broth microdilution MIC (strain enzymes: TEM-1, CTXM-15); assay type: cell-based; conditions: Escherichia coli, 3174; alone; read-out: MIC of cefixime (CFM)
# E. coli ESBL 2 = test: Broth microdilution MIC (strain enzymes: TEM-1); assay type: cell-based; conditions: Escherichia coli, ESBL2; alone; read-out: MIC of cefixime (CFM)
# E. coli SI-NO36 = test: Broth microdilution MIC (strain enzymes: SHV-11, TEM-1); assay type: cell-based; conditions: Escherichia coli, SINO36; alone; read-out: MIC of cefixime (CFM)
# K. pneumoniae 170375 = test: Broth microdilution MIC (strain enzymes: SHV-12, CTX-M15 and TEM-1); assay type: cell-based; conditions: Klebsiella pneumoniae, 170375; alone; read-out: MIC of cefixime (CFM)
# E. coli 25922 = test: Broth microdilution MIC (strain enzymes: None detected); assay type: cell-based; conditions: Escherichia coli, 25922; alone; read-out: MIC of cefixime (CFM)
# K. pneumoniae KPN 508 = test: Broth microdilution MIC (strain enzymes: SHV-7, TEM-1); assay type: cell-based; conditions: Klebsiella pneumoniae, KPN508; alone; read-out: MIC of cefixime (CFM)
# E. coli 2806 = test: Broth microdilution MIC (strain enzymes: SHV-12, TEM-1); assay type: cell-based; conditions: Escherichia coli, 2806; alone; read-out: MIC of cefixime (CFM)
# E. coli SI-M004 = test: Broth microdilution MIC (strain enzymes: SHV-2, GES-12); assay type: cell-based; conditions: Escherichia coli, SIM004; alone; read-out: MIC of cefixime (CFM)
# K. pneumoniae ESBL 7 #2 = test: Broth microdilution MIC (strain enzymes: SHV-12, CTX-M15, TEM-1); assay type: cell-based; conditions: Klebsiella pneumoniae; alone; read-out: MIC of cefixime (CFM)
# E. coli SI-LP377 = test: microbe, parasite or virus in culture; assay type: cell-based; conditions: Escherichia coli, SILP377, read-out: MIC of cefixime (CFM)
# K. oxytoca 169219 = test: Broth microdilution MIC (strain enzymes: TEM-1, CTXM-15); assay type: cell-based; conditions: Klebsiella oxytoca, 169219; alone; read-out: MIC of cefixime (CFM)
# E. coli Si-FDL-GES = test: microbe, parasite or virus in culture; assay type: cell-based; conditions: Escherichia coli, read-out: MIC of cefixime (CFM)
# K. pneumoniae 329633 = test: Broth microdilution MIC (strain enzymes: SHV-5, TEM-1); assay type: cell-based; conditions: Klebsiella pneumoniae, 329633; alone; read-out: MIC of cefixime (CFM)
# K. pneumoniae ESBL 10 = test: Broth microdilution MIC (strain enzymes: SHV-12, TEM-1); assay type: cell-based; conditions: Klebsiella pneumoniae, ESBL10; alone; read-out: MIC of cefixime (CFM)
# K. oxytoca 496 #2 = test: Broth microdilution MIC (strain enzymes: SHV-105, TEM-1); assay type: cell-based; conditions: Klebsiella oxytoca; alone; read-out: MIC of cefixime (CFM)
# K. pneumoniae KI (KCl) = test: Broth microdilution MIC (strain enzymes: TEM-10); assay type: cell-based; conditions: Klebsiella pneumoniae; alone; read-out: MIC of cefixime (CFM)
# E. coli SI-V502 = test: Broth microdilution MIC (strain enzymes: TEM-29, CTX-M15); assay type: cell-based; conditions: Escherichia coli, SIV502; alone; read-out: MIC of cefixime (CFM)
# K. pneumoniae SI-KP NO30 = test: Broth microdilution MIC (strain enzymes: TEM-26b, SHV-60, SHV-26); assay type: cell-based; conditions: Klebsiella pneumoniae, SIKPNO30; alone; read-out: MIC of cefixime (CFM)
# [2] = system: AmpC/CMY-expressing Enterobacteriaceae (n = 44); test: Broth microdilution MIC, ceftibuten/Compound 2 vs IV comparators; assay type: cell-based
# [3] = system: OXA-48-expressing Enterobacteriaceae (n = 39); test: as above
# [4] = system: KPC-expressing Enterobacteriaceae (n = 77); test: organism not typed; assay type: cell-based
# [5] = system: ESBL-expressing Enterobacteriaceae (n = 33); test: Broth microdilution MIC, ceftibuten/Compound 2 vs IV comparators; assay type: cell-based
smiles,measurement,setting,value
"C=CC1=C(C(=O)O)N2C(=O)[C@@H](NC(=O)/C(=N\OCC(=O)O)c3csc(N)n3)[C@H]2SC1 [Cefixime, cefixime, reference compound]",MIC,K. oxytoca 176877,> 32 µg/mL
same,MIC,E. coli SI-AIRT-4,0.5 µg/mL
same,MIC,K. pneumoniae ESBL 7 #1,> 32 µg/mL
same,MIC,K. pneumoniae 3151,> 32 µg/mL
same,MIC,E. coli ESBL 5,> 32 µg/mL
same,MIC,K. pneumoniae KP 3,> 32 µg/mL
same,MIC,E. coli 1924,2 µg/mL
same,MIC,E. coli 2150,> 32 µg/mL
same,MIC,E. coli ESBL 4,> 32 µg/mL
same,MIC,K. pneumoniae KP 4,> 32 µg/mL
same,MIC,K. pneumoniae ESBL 8 #1,> 32 µg/mL
same,MIC,K. pneumoniae 115468,> 32 µg/mL
same,MIC,E. coli 3327,> 32 µg/mL
same,MIC,K. pneumoniae 153239,0.5 µg/mL
same,MIC,K. pneumoniae 11/23 LF#2,> 32 µg/mL
same,MIC,K. pneumoniae ESBL 8 #2,> 32 µg/mL
same,MIC,K. pneumoniae BAA 1705,> 32 µg/mL
same,MIC50,[1]; read-out: Cefixime MIC50,> 32 µg/mL
same,MIC90,[1]; read-out: Cefixime MIC90,> 32 µg/mL
same,MIC,K. pneumoniae 319478,> 32 µg/mL
same,MIC,E. coli BAS 1,> 32 µg/mL
same,MIC,K. pneumoniae 304487,> 32 µg/mL
same,MIC,K. pneumoniae KP 8,> 32 µg/mL
same,MIC,E. coli SI-PBLII,1 µg/mL
same,MIC,E. coli 3174,0.5 µg/mL
same,MIC,E. coli ESBL 2,> 32 µg/mL
same,MIC,E. coli SI-NO36,1 µg/mL
same,MIC,K. pneumoniae 170375,> 32 µg/mL
same,MIC,E. coli 25922,1 µg/mL
same,MIC,K. pneumoniae KPN 508,> 32 µg/mL
same,MIC,E. coli 2806,32 µg/mL
same,MIC,E. coli SI-M004,> 32 µg/mL
same,MIC,K. pneumoniae ESBL 7 #2,> 32 µg/mL
same,MIC,E. coli SI-LP377,> 32 µg/mL
same,MIC,K. oxytoca 169219,> 32 µg/mL
same,MIC,E. coli Si-FDL-GES,2 µg/mL
same,MIC,K. pneumoniae 329633,> 32 µg/mL
same,MIC,K. pneumoniae ESBL 10,> 32 µg/mL
same,MIC,K. oxytoca 496 #2,32 µg/mL
same,MIC,K. pneumoniae KI (KCl),32 µg/mL
same,MIC,E. coli SI-V502,2 µg/mL
same,MIC,K. pneumoniae SI-KP NO30,> 32 µg/mL
C[C@@H](O)[C@H]1C(=O)N2C(C(=O)O)=C(S[C@@H]3CN[C@H](C(=O)N(C)C)C3)[C@H](C)[C@H]12 [Meropenem],Number of strains at MIC value 0.5 mg/L,[2]; AmpC/CMY-expressing (n = 44),2
same,Number of strains at MIC value 1 mg/L,[2]; AmpC/CMY-expressing (n = 44),1
same,Number of strains at MIC value 2 mg/L,[2]; AmpC/CMY-expressing (n = 44),0
same,Number of strains at MIC value 4 mg/L,[2]; AmpC/CMY-expressing (n = 44),3
same,Number of strains at MIC value 8 mg/L,[2]; AmpC/CMY-expressing (n = 44),0
same,Number of strains at MIC value 16 mg/L,[2]; AmpC/CMY-expressing (n = 44),0
same,Number of strains at MIC value […],[2]; AmpC/CMY-expressing (n = 44),2
same,Number of strains at MIC value ≤0.06 mg/L,[2]; AmpC/CMY-expressing (n = 44),34
same,Number of strains at MIC value ≥32 mg/L,[2]; AmpC/CMY-expressing (n = 44),0
same,MIC50,[2]; iv,≤ 0.06 µg/mL
same,MIC90,[2]; iv,0.5 µg/mL
same,MIC50,[3],2 µg/mL
same,MIC90,[3],8 µg/mL
same,Number of strains at MIC value 0.5 mg/L,[4]; KPC-expressing (n = 77),1
same,Number of strains at MIC value 1 mg/L,[4]; KPC-expressing (n = 77),0
same,Number of strains at MIC value 2 mg/L,[4]; KPC-expressing (n = 77),3
same,Number of strains at MIC value 4 mg/L,[4]; KPC-expressing (n = 77),4
same,Number of strains at MIC value 8 mg/L,[4]; KPC-expressing (n = 77),11
same,Number of strains at MIC value 16 mg/L,[4]; KPC-expressing (n = 77),13
same,Number of strains at MIC value […],[4]; KPC-expressing (n = 77),0
same,Number of strains at MIC value ≤0.06 mg/L,[4]; KPC-expressing (n = 77),1
same,Number of strains at MIC value ≥32 mg/L,[4]; KPC-expressing (n = 77),44
same,MIC50,[4]; iv,≥ 32 µg/mL
same,MIC90,[4]; iv,≥ 32 µg/mL
same,Number of strains at MIC value 0.5 mg/L,[5]; ESBL-expressing (n = 33),0
same,Number of strains at MIC value 1 mg/L,[5]; ESBL-expressing (n = 33),1
same,Number of strains at MIC value 2 mg/L,[5]; ESBL-expressing (n = 33),1
same,Number of strains at MIC value 4 mg/L,[5]; ESBL-expressing (n = 33),0
same,Number of strains at MIC value 8 mg/L,[5]; ESBL-expressing (n = 33),1
same,Number of strains at MIC value 16 mg/L,[5]; ESBL-expressing (n = 33),0
same,Number of strains at MIC value […],[5]; ESBL-expressing (n = 33),1 and 0
same,Number of strains at MIC value ≤0.06 mg/L,[5]; ESBL-expressing (n = 33),29
same,Number of strains at MIC value ≥32 mg/L,[5]; ESBL-expressing (n = 33),0
same,MIC50,[5]; iv,≤ 0.06 µg/mL
same,MIC90,[5]; iv,0.125 µg/mL
